# Measured values published in PMC6251916, “CKD-506, a novel HDAC6-selective inhibitor, improves renal outcomes and survival in a mouse model of systemic lupus erythematosus” (Scientific Reports, 2018).
# pIC50: −log10 of the molar value.
# Columns and labels:
# [1] = system: NZB/W F1 female mice; test: Murine SLE model: kidney histopathology (H&E, PAS, Masson trichrome); assay type: in vivo, mouse; settings: group CKD10
# Text: Survival had been monitored until 42 weeks of age.
# Kidneys were harvested from mice at the end of the study (at 43–44 weeks of age). For light microscopy, the tissues were fixed in 10% neutral buffered formalin, embedded in paraffin wax, sectioned at a thickness of 5 μm and stained with H&E (BBC Biochemical, Mount Vernon, WA, USA). Periodic acid/Schiff (PAS stain kit, BBC Biochemical) staining and Masson trichrome (BBC Biochemical) staining were used for the detection of […] and fibrosis, respectively. Inflammatory cell infiltration and mesangial proliferation were scored on a 4-point scale as 0 (none), 1+ (mild), 2+ (moderate), 3+ (moderate to severe) and 4+ (severe).
# [2] = system: NZB/W F1 female mice; test: Murine SLE model: serum cytokine levels (Milliplex); assay type: in vivo, mouse; settings: for Serum GM-CSF / Serum IFN-γ / Serum IL-1α / Serum IL-1β / Serum IL-2 / Serum IL-4 / Serum IL-6 / Serum IL-10 / Serum IL-12(70) / Serum IL-15 / Serum IL-17 / Serum IL-22 / Serum IL-23 / Serum TGF-β1 / Serum TNF-α: at autopsy, mean ± SD
# Description: Serum samples were assayed using Milliplex® MAP Kits (Millipore) for granulocyte macrophage-colony stimulating factor (GM-CSF), interferon-γ (IFN-γ), interleukin-1α (IL-1α), IL-1β, IL-10, IL-12(p70), IL-15, IL-17a, IL-2, IL-4, IL-6, tumor necrosis factor α (TNF-α), transforming growth factor beta 1 (TGF-β1), IL-22, IL-23, IFN-inducible protein 10 (IP-10 (CXCL10)) and chemokine (C-C motif) ligand 2 (CCL2 (MCP-1)).
# [3] = target: T1, HDAC1 (Homo sapiens, UniProt Q13547); test: HDAC panel assay (enzyme activity); assay type: biochemical
# T1 construct: purchased Reaction biology Corp. (Malvern, PA, USA)
# T1 sequence (Q13547 whole entry): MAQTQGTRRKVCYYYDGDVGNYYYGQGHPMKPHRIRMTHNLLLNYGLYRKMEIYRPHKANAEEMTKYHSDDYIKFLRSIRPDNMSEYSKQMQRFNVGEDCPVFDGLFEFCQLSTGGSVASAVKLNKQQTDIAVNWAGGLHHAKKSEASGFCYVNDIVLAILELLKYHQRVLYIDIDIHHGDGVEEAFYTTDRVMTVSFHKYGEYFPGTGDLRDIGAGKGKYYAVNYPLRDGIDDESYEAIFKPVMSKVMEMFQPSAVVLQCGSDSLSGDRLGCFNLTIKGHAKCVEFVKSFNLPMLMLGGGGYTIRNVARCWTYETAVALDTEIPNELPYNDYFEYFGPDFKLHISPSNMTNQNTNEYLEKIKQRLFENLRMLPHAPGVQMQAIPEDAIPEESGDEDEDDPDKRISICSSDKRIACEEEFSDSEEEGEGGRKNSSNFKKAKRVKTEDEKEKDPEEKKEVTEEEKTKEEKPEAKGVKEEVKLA
# Description: (§1) HDAC panel assay was performed by Reaction biology Corp. (Malvern, PA, USA) according to their validated protocol. To evaluate the potency and selectivity of CKD-506, HDAC panel assay was carried out by Reaction biology Corp. Briefly, the deacetylation reaction was performed in 50 mM Tris-HCl pH 8.0, 137 mM NaCl, 2.7 mM KCl, 1 mM MgCl2, and 1 mg/ml bovine serum albumin (BSA) with RHK-K(Ac)-AMC as substrate. After the reaction, a fluorescence signal (Ex. 360 nm/Em. 460 nm) developed (~30 min.) by addition of an equal volume of 2 mM nicotinamide, 16 mg/mL trypsin in 50 mM Tris-HCl pH 8.0, 137 mM NaCl, 2.7 mM KCl, and 1 mM MgCl2.
# [4] = target: T2, HDAC2 (Homo sapiens, UniProt Q92769); test: HDAC panel assay (enzyme activity); assay type: biochemical
# T2 construct: purchased Reaction biology Corp. (Malvern, PA, USA)
# T2 sequence (Q92769 whole entry): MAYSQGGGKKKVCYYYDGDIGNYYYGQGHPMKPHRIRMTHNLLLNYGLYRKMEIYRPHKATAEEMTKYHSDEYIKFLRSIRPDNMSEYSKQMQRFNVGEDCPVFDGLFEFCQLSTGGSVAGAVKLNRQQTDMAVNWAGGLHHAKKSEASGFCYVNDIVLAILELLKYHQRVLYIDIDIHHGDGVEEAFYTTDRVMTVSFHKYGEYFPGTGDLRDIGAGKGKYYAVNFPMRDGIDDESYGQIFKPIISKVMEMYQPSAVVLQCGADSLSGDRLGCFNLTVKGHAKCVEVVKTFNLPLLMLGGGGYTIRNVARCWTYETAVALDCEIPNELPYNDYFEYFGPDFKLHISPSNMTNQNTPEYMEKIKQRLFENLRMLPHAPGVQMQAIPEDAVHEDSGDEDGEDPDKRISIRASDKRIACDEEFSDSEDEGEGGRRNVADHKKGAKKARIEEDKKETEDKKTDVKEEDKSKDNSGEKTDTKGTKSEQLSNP
# Description: as §1
# [5] = target: T3, HDAC8 (Homo sapiens, UniProt Q9BY41); test: HDAC panel assay (enzyme activity); assay type: biochemical
# T3 construct: purchased Reaction biology Corp. (Malvern, PA, USA)
# T3 sequence (Q9BY41 1-377): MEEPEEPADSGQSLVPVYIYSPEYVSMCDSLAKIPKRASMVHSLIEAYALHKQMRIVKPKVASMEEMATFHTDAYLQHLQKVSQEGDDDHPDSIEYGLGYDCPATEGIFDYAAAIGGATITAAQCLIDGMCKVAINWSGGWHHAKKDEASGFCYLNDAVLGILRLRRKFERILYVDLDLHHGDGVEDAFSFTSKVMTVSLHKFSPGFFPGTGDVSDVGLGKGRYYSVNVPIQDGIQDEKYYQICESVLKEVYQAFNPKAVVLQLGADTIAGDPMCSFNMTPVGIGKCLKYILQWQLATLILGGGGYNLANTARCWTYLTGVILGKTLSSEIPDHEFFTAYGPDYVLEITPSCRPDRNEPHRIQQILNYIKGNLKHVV
# Description: as §1
# [6] = system: other HDAC isoforms; test: HDAC panel assay (enzyme activity); assay type: biochemical
# Description: as §1
# [7] = group D: CKD-506 10 mg/kg/day, n = 10
# [8] = group E: CKD-506 30 mg/kg/day, n = 14
substance,measurement,setting,value
CKD-506,Masson's trichrome staining of kidneys,[1],fibrosis
same,Periodic acid-Schiff (PAS) staining of kidneys,[1],dilated tubules and casts
same,histopathological evaluation of the kidneys (H&E),[1],Large numbers of inflammatory cell infiltrations and mesangial proliferation
same,serum levels of IP-10 vs vehicle,"[2]; group CKD50, 36 weeks of age",significantly lower
same,Mean serum levels of CCL2 vs vehicle,"[2]; group CKD50, 36 weeks of age, difference not statistically significant",lower
same,Serum GM-CSF,[2]; [7],2.65 ± 8.38 pg/mL
same,Serum IFN-γ,[2]; [7],1.06 ± 3.34 pg/mL
same,Serum IL-1α,[2]; [7],371.96 ± 261.58 pg/mL
same,Serum IL-1β,[2]; [7],1.27 ± 2.04 pg/mL
same,Serum IL-2,[2]; [7],1.91 ± 5.61 pg/mL
same,Serum IL-4,[2]; [7],1.74 ± 0.60 pg/mL
same,Serum IL-6,[2]; [7],7.21 ± 7.41 pg/mL
same,Serum IL-10,[2]; [7],25.00 ± 25.33 pg/mL
same,Serum IL-12(70),[2]; [7],1.94 ± 3.69 pg/mL
same,Serum IL-15,[2]; [7],184.36 ± 280.13 pg/mL
same,Serum IL-17,[2]; [7],10.40 ± 12.20 pg/mL
same,Serum IL-22,[2]; [7],27.05 ± 31.48 pg/mL
same,Serum IL-23,[2]; [7],1.96 ± 6.20 pg/mL
same,Serum TGF-β1,[2]; [7],73356.45 ± 22951.98 pg/mL
same,Serum TNF-α,[2]; [7],7.91 ± 8.45 pg/mL
same,Serum GM-CSF,[2]; [8],5.32 ± 15.20 pg/mL
same,Serum IFN-γ,[2]; [8],6.60 ± 15.24 pg/mL
same,Serum IL-1α,[2]; [8],458.40 ± 339.71 pg/mL
same,Serum IL-1β,[2]; [8],74.66 ± 264.02 pg/mL
same,Serum IL-2,[2]; [8],9.32 ± 17.79 pg/mL
same,Serum IL-4,[2]; [8],8.60 ± 25.44 pg/mL
same,Serum IL-6,[2]; [8],21.23 ± 50.94 pg/mL
same,Serum IL-10,[2]; [8],56.55 ± 146.53 pg/mL
same,Serum IL-12(70),[2]; [8],74.50 ± 238.09 pg/mL
same,Serum IL-15,[2]; [8],162.41 ± 200.63 pg/mL
same,Serum IL-17,[2]; [8],21.14 ± 54.60 pg/mL
same,Serum IL-22,[2]; [8],13.00 ± 16.48 pg/mL
same,Serum IL-23,[2]; [8],100.56 ± 376.25 pg/mL
same,Serum TGF-β1,[2]; [8],58807.36 ± 25015.67 pg/mL
same,Serum TNF-α,[2]; [8],16.25 ± 50.35 pg/mL
same,Serum GM-CSF,"[2]; group F: 50 mg/kg/day, n = 14",1.89 ± 7.09 pg/mL
same,Serum IFN-γ,"[2]; group F: 50 mg/kg/day, n = 14",2.07 ± 5.38 pg/mL
same,Serum IL-1α,"[2]; group F: 50 mg/kg/day, n = 14",629.16 ± 480.71 pg/mL
same,Serum IL-1β,"[2]; group F: 50 mg/kg/day, n = 14",3.86 ± 7.83 pg/mL
same,Serum IL-2,"[2]; group F: 50 mg/kg/day, n = 14",4.09 ± 9.84 pg/mL
same,Serum IL-4,"[2]; group F: 50 mg/kg/day, n = 14",3.70 ± 6.48 pg/mL
same,Serum IL-6,"[2]; group F: 50 mg/kg/day, n = 14",5.69 ± 8.94 pg/mL
same,Serum IL-10,"[2]; group F: 50 mg/kg/day, n = 14",8.31 ± 14.15 pg/mL
same,Serum IL-12(70),"[2]; group F: 50 mg/kg/day, n = 14",15.62 ± 45.25 pg/mL
same,Serum IL-15,"[2]; group F: 50 mg/kg/day, n = 14",26.24 ± 28.73 pg/mL
same,Serum IL-17,"[2]; group F: 50 mg/kg/day, n = 14",4.82 ± 7.15 pg/mL
same,Serum IL-22,"[2]; group F: 50 mg/kg/day, n = 14",6.37 ± 5.56 pg/mL
same,Serum IL-23,"[2]; group F: 50 mg/kg/day, n = 14",41.34 ± 154.68 pg/mL
same,Serum TGF-β1,"[2]; group F: 50 mg/kg/day, n = 14",73110.92 ± 17325.08 pg/mL
same,Serum TNF-α,"[2]; group F: 50 mg/kg/day, n = 14",1.24 ± 2.60 pg/mL
same,pIC50,[3],5.30 to 5.70
same,pIC50,[4],5.30 to 5.70
same,pIC50,[5],5.30 to 5.70
same,inhibition of enzyme activity of other HDAC isoforms,[6],does not inhibit
